Laboratory results from US20240108601A1, “TREATMENT OF MENTAL DISORDERS” (GH Research Ireland Limited, priority 2022, published 2024).

What was measured:
5-HT2A receptors = molecular target: T1, 5-HT2A receptors (Homo sapiens, UniProt P28223); assay: Radioligand ([3H]MDL-100,907) binding to 5-HT2A receptors in post-mortem human frontal cortex membranes
T1 construct: frontal cortical membranes (400 μl; equivalent 4 mg wet weight tissue/tube) was incubated with 50 μl of 0.1 nM; tissue Edinburgh Sudden Death Brain Bank; host or cells: post-mortem human frontal cortex membranes

5-HT1A receptors = molecular target: T2, 5-HT1A receptors (Homo sapiens, UniProt P08908); assay: Radioligand ([3H]8-OH-DPAT) binding to 5-HT1A receptors in post-mortem human hippocampus membranes
T2 construct: hippocampal membranes (400 μl; equivalent 1.25 mg wet weight tissue/tube) were incubated with 50 μl of 0.6 nM; tissue Edinburgh Sudden Death Brain Bank; host or cells: post-mortem human hippocampus membranes
T2 sequence (P08908 1-422): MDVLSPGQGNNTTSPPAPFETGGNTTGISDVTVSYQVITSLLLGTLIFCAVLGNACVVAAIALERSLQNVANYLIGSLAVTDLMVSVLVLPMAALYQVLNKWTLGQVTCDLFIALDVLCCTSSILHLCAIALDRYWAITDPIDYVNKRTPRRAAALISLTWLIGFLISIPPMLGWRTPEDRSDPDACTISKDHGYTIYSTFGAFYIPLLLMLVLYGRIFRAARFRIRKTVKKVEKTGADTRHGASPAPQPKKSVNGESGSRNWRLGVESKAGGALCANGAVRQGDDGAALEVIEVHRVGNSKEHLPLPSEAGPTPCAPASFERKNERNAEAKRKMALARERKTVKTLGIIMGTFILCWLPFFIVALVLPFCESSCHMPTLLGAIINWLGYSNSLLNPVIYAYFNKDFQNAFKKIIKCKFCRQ

human hepatocytes = assay: Metabolite identification in human hepatocyte suspension; details: 5-MeO-DMT free base 10 μM, incubated up to 120 minutes
Protocol: For incubations with cryopreserved hepatocytes, the 2 mM stock solution was diluted with Leibovitz L-15 medium to a concentration of 20 μM or 2 μM. An aliquot (250 μL) of the 20 μM and 2 μM test substance formulations was added to each hepatocyte incubation sample (250 μL), as appropriate, so that the final test substance concentration in the incubations was 10 μM or 1 μM, respectively, and incubations contained less than 1% (v/v) solvent.
Incubations were performed at ca. 37° C. in a shaking water bath (total incubation volume 0.5 mL). For 1 μM, incubations were terminated after 0, 5, 10, 20, 30, 60 and 120 minutes, by the addition of ice-cold acetonitrile (0.5 mL).
The samples were vortex mixed and centrifuged at ca 13,000 rpm for 10 minutes at room temperature. Following centrifugation, the protein-free supernatants were removed for analysis.
Blank control incubations were carried out with Leibovitz L-15 medium in place of the test substance. No cells control samples were performed with Leibovitz L-15 medium in place of hepatocytes. Aliquots of the blank control samples were taken at 120 minutes, while no cells control samples were taken at 0, 30 and 120 for 1 μM incubations and at 0 and 120 minutes for 10 μM incubations.
All 1 μM incubations were performed in duplicate, while all 10 μM incubations were performed in singlet. All samples were stored at −80° C. (nominal) prior to analysis.
Prior to sample analysis a 100 μL aliquot of each sample was evaporated to near dryness under a steady stream of nitrogen at room temperature, and subsequently reconstituted in 50 μL of mobile phase A (0.1% formic acid in water). Each sample (0, 30 and 120-minute, 10 μM) was analysed using accurate mass LC-MS to determine relative levels of parent compound at each time-point, and determine the profile of metabolites formed. Appropriate blank and control samples were also analysed. The 10 and 60-minute, 10 μM incubation samples were not analysed and were stored at −80° C. (nominal). […]

[1] = Metabolic stability in Hμrel human hepatocyte co-culture; details: human
[2] = tested on: human hepatocytes (Hμrel HumanPool co-culture); assay: as above

T1 sequence (P28223 whole entry): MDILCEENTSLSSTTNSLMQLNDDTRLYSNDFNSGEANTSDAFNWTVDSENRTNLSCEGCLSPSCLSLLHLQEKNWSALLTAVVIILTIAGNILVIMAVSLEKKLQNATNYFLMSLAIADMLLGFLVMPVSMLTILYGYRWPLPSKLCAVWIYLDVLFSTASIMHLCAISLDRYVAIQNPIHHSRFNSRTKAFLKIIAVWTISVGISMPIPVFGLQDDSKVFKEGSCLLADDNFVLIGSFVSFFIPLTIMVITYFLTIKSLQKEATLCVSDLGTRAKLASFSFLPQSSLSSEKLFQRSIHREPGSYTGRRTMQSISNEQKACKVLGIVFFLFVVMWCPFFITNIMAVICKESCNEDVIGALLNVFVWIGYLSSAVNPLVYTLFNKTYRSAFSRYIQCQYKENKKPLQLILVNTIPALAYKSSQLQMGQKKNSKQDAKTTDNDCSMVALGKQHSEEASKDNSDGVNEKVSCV

For `CN(C)CCc1c[nH]c2ccccc12` [DMT, N,N-dimethyltryptamine], the Ki (5-HT2A receptors) was 0.117 µM.
`CN(C)CCc1c[nH]c2cccc(O)c12` [psilocin] gave a Ki (5-HT1A receptors) of 0.048 µM.
In the case of `COc1ccc2[nH]cc(CCO)c2c1` [5-methoxytryptophol, 5-Methoxyindole-3-ethanol], the “Relative Proportion of compounds identified” value (human hepatocytes) is reported as 25%, the half-life at 1 µM [1] is reported as 2.37 h and the hepatocyte CLint at 1 µM [1] is reported as 16.2 µL/min/1e6 cells. For the same compound, the “Disappearance with stromal cell controls” value ([2]; 0-72 h) was “no disappearance”, the “Relative LC/MS peak area remaining” value ([2]; 1 μM Hepatocytes, 0 h) was 100% and the “Relative LC/MS peak area remaining” value ([2]; 1 μM Hepatocytes, 1 h) was 79%. For the same compound, the “Relative LC/MS peak area remaining” value ([2]; 1 μM Hepatocytes, 2 h) was 57%, the “Relative LC/MS peak area remaining” value ([2]; 1 μM Hepatocytes, 4 h) was 33% and the “Relative LC/MS peak area remaining” value ([2]; 1 μM Hepatocytes, 8 h) was 10%. For the same compound, the “Relative LC/MS peak area remaining” value ([2]; 1 μM Hepatocytes, 24 h) was 0%, the “Relative LC/MS peak area remaining” value ([2]; 1 μM Hepatocytes, 48 h) was 0% and the “Relative LC/MS peak area remaining” value ([2]; 1 μM Hepatocytes, 72 h) was 0%. The “Relative LC/MS peak area remaining” value ([2]; 1 μM Stromal cells, 0 h) was 100%, the “Relative LC/MS peak area remaining” value ([2]; 1 μM Stromal cells, 4 h) was 97% and the “Relative LC/MS peak area remaining” value ([2]; 1 μM Stromal cells, 8 h) was 107%. For the same compound, the “Relative LC/MS peak area remaining” value ([2]; 1 μM Stromal cells, 24 h) was 94%, the “Relative LC/MS peak area remaining” value ([2]; 1 μM Stromal cells, 48 h) was 102% and the “Relative LC/MS peak area remaining” value ([2]; 1 μM Stromal cells, 72 h) was 104%. For the same compound, the “Relative LC/MS peak area remaining” value ([2]; 10 μM Hepatocytes, 0 h) was 100%, the “Relative LC/MS peak area remaining” value ([2]; 10 μM Hepatocytes, 1 h) was 87% and the “Relative LC/MS peak area remaining” value ([2]; 10 μM Hepatocytes, 2 h) was 81%. The “Relative LC/MS peak area remaining” value ([2]; 10 μM Hepatocytes, 4 h) was 68%, the “Relative LC/MS peak area remaining” value ([2]; 10 μM Hepatocytes, 8 h) was 42% and the “Relative LC/MS peak area remaining” value ([2]; 10 μM Hepatocytes, 24 h) was 1%. For the same compound, the “Relative LC/MS peak area remaining” value ([2]; 10 μM Hepatocytes, 48 h) was 0%, the “Relative LC/MS peak area remaining” value ([2]; 10 μM Hepatocytes, 72 h) was 0% and the “Relative LC/MS peak area remaining” value ([2]; 10 μM Stromal cells, 0 h) was 100%. For the same compound, the “Relative LC/MS peak area remaining” value ([2]; 10 μM Stromal cells, 4 h) was 99%, the “Relative LC/MS peak area remaining” value ([2]; 10 μM Stromal cells, 8 h) was 105% and the “Relative LC/MS peak area remaining” value ([2]; 10 μM Stromal cells, 24 h) was 86%. For the same compound, the “Relative LC/MS peak area remaining” value ([2]; 10 μM Stromal cells, 48 h) was 98%, the “Relative LC/MS peak area remaining” value ([2]; 10 μM Stromal cells, 72 h) was 104% and the “Metabolic turnover in the presence of hepatocytes” value ([2]; 24h) was “complete disappearance”. The “Predicted hepatic extraction ratio” value ([2]; human) was 67%.
